Test results: article PMC10029098 (Chembiochem : a European journal of chemical biology, 2022)
Values joined by “and” are separate entries in the source; they are usually repeats but may differ in a detail not shown here. Identical values can stand only once. Ends that are not written are not given here.

How the values were obtained:
[1] = Thermodynamic solubility measurement; assay type: physicochemical; settings: potassium phosphate buffer, pH 7.4, aqueous buffer, thermodynamic from solid
PD1/PDL1 interaction = PD1/PDL1 interaction (Homo sapiens, UniProt Q15116); test: PD1 ImmunoBlocking ELISA; assay type: biochemical
Chain of PD1/PDL1 interaction (Q15116 25-167 limits assumed): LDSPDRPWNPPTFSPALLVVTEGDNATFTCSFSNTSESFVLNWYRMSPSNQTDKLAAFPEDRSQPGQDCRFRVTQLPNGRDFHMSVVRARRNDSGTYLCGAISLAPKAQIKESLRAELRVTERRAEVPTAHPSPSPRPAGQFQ

PD1 = PD1 (Homo sapiens, UniProt Q15116); test: UV/Vis-colorimetric PDL1-competitive binding kinetics assay
Chain of PD1 (Q15116 25-167 limits assumed): as above

[2] = Far-UV CD spectroscopy, thermal denaturation; assay type: physicochemical; settings: calculated at 293K from best-fitted melting curves of thermal denaturation recorded by CD; phosphate buffer 15 mM, pH 6.5; RC = random coil

| Sequence | solubility thermodynamic [1] | EC50 (PD1/PDL1 interaction) | Ki (PD1) | %-Fold, hairpin folded fraction (χF) [2] |
| --- | --- | --- | --- | --- |
| RWCARRDYRFDMGFDYWGWE [1c] | 300 ± 100 µM | 3.7 ± 1.02 µM | – | – |
| RWVARRDYRFDMGFDYWVWE [1e] | 900 ± 100 µM | < 0.6 µM and 0.29 µM | 0.041 µM | – |
| RWVARRDYRGDMGFDYWVWE [1d] | 3400 ± 100 µM | – | – | – |
| RWVWGGGGKKGGGGWVWE [2a] | 5800 ± 200 µM | – | – | 87 ± 1% |
| RWVWRRDYRFDMGFDYWVWE [2c] | – | – | – | 54 ± 1% |
| RWVWRRDYRGDMGFDYWVWE [2b] | 600 ± 100 µM | – | – | 81 ± 1% |
